Assays:
Test in all cases: Kinase inhibitor library screening, PrestoBlue cell viability, 1 or 10 μM, 72 h
[1] = system: A375-GP cells (Dabrafenib-resistant)
[2] = system: 501Mel-GP cells (Dabrafenib-resistant); settings: 72 h
501Mel cells (parental) = settings: 72 h
Procedure, shortened: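 Treatment: 72 h with inhibitor. Detection: PrestoBlue, plate reader. Output: viability as % untreated control. Replicates: duplicate minimum. Lines: parental plus Vemurafenib- or Dabrafenib-resistant derivatives.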

[3] = system: IGR37-XP cells (Vemurafenib-resistant)
[4] = system: A375-XP cells (Vemurafenib-resistant)
A375 cells (parental) = system: A375 cells (parental)
[5] = system: 501Mel-XP cells (Vemurafenib-resistant); settings: 72 h
[6] = system: IGR37-GP cells (Dabrafenib-resistant)
IGR37 cells (parental) = system: IGR37 cells (parental)

SMILES: Cc1nc(NC(=O)N2CCC[C@H]2C(N)=O)sc1-c1ccnc(C(C)(C)C(F)(F)F)c1 [BYL719]
- Cell viability in kinase inhibitor library screening, A375 GP, 1μΜ ([1]; A375 GP, 1μΜ, 72 h): 86.9
- Cell viability in kinase inhibitor library screening, A375 GP, 10μΜ ([1]; A375 GP, 10μΜ, 72 h): 52.5
- Cell viability in kinase inhibitor library screening, 501Mel GP, 10μΜ ([2]; 501Mel GP, 10μΜ, in %): 62.2
- Cell viability in kinase inhibitor library screening, 501Mel Parental, 1μΜ (501Mel cells (parental); 501Mel Parental, 1μΜ, in %): 99.0
- Cell viability in kinase inhibitor library screening, 501Mel Parental, 10μΜ (501Mel cells (parental); 501Mel Parental, 10μΜ, in %): 90.7
- Cell viability in kinase inhibitor library screening, IGR37 XP, 10μΜ ([3]; IGR37 XP, 10μΜ, 72 h): 20.2%
- Cell viability in kinase inhibitor library screening, IGR37 XP, 1μΜ ([3]; IGR37 XP, 1μΜ, 72 h, in %): 80.6
- Cell viability in kinase inhibitor library screening, A375 XP, 1μΜ ([4]; A375 XP, 1μΜ, 72 h): 93.5
- Cell viability in kinase inhibitor library screening, A375 XP, 10μΜ ([4]; A375 XP, 10μΜ, 72 h): 62.9
- Cell viability in kinase inhibitor library screening, A375 Parental, 10μΜ (A375 cells (parental); A375 Parental, 10μΜ, 72 h): 60.2
- Cell viability in kinase inhibitor library screening, A375 Parental, 1μΜ (A375 cells (parental); A375 Parental, 1μΜ, 72 h): 93.2
- Cell viability in kinase inhibitor library screening, 501Mel XP, 1μΜ ([5]; 501Mel XP, 1μΜ, in %): 90.3
- Cell viability in kinase inhibitor library screening, 501Mel XP, 10μΜ ([5]; 501Mel XP, 10μΜ, in %): 56.3
- Cell viability in kinase inhibitor library screening, IGR37 GP, 10μΜ ([6]; IGR37 GP, 10μΜ, 72 h): 62.1%
- Cell viability in kinase inhibitor library screening, IGR37 GP, 1μΜ ([6]; IGR37 GP, 1μΜ, 72 h, in %): 90.5
- Cell viability in kinase inhibitor library screening, IGR37 Parental, 1μΜ (IGR37 cells (parental); IGR37 Parental, 1μΜ, 72 h, in %): 99.1
- Cell viability in kinase inhibitor library screening, IGR37 Parental, 10μΜ (IGR37 cells (parental); IGR37 Parental, 10μΜ, 72 h, in %): 77.8

SMILES: CCN(CCO)CCCOc1ccc2c(Nc3cc(CC(=O)Nc4cccc(F)c4)[nH]n3)ncnc2c1 [Barasertib (AZD1152-HQPA)]
- cell viability (kinase inhibitor library screening) ([1]; A375 GP, 1μΜ, 72 h): 57.9%
- cell viability (kinase inhibitor library screening) ([1]; A375 GP, 10μΜ, 72 h): 61.1%
- cell viability (kinase inhibitor library screening) ([2]; 501Mel GP, 1μΜ): 99.2%
- cell viability (kinase inhibitor library screening) ([2]; 501Mel GP, 10μΜ): 86.2%
- cell viability (kinase inhibitor library screening) (501Mel cells (parental); 501Mel Parental, 1μΜ): 96.3%
- cell viability (kinase inhibitor library screening) (501Mel cells (parental); 501Mel Parental, 10μΜ): 92.5%
- cell viability (kinase inhibitor library screening) ([3]; IGR37 XP, 1μΜ, 72 h): 98.0%
- cell viability (kinase inhibitor library screening) ([3]; IGR37 XP, 10μΜ, 72 h): 51.5%
- cell viability (kinase inhibitor library screening) ([4]; A375 XP, 1μΜ, 72 h): 66.2%
- cell viability (kinase inhibitor library screening) ([4]; A375 XP, 10μΜ, 72 h): 68.8%
- cell viability (kinase inhibitor library screening) (A375 cells (parental); A375 Parental, 10μΜ, 72 h): 59.0%
- cell viability (kinase inhibitor library screening) (A375 cells (parental); A375 Parental, 1μΜ, 72 h): 59.4%
- cell viability (kinase inhibitor library screening) ([5]; 501Mel XP, 1μΜ): 90.3%
- cell viability (kinase inhibitor library screening) ([5]; 501Mel XP, 10μΜ): 81.8%
- cell viability (kinase inhibitor library screening) ([6]; IGR37 GP, 1μΜ, 72 h): 98.3%
- cell viability (kinase inhibitor library screening) ([6]; IGR37 GP, 10μΜ, 72 h): 91.0%
- cell viability (kinase inhibitor library screening) (IGR37 cells (parental); IGR37 Parental, 1μΜ, 72 h): 93.5%
- cell viability (kinase inhibitor library screening) (IGR37 cells (parental); IGR37 Parental, 10μΜ, 72 h): 81.6%

SMILES: CCS(=O)(=O)N1CC(CC#N)(n2cc(-c3ncnc4[nH]ccc34)cn2)C1 [Baricitinib (LY3009104)]
- viability at 1 µM ([1]; Homo sapiens, A-375, 72 h, read-out: cell viability, A375 GP, 1μΜ): 106%
- viability at 10 µM ([1]; Homo sapiens, A-375, 72 h, read-out: cell viability, A375 GP, 10μΜ): 88.4%
- viability at 1 µM ([2]; Homo sapiens, read-out: cell viability, 501Mel GP, 1μΜ): 104%
- viability at 10 µM ([2]; Homo sapiens, read-out: cell viability, 501Mel GP, 10μΜ): 83.8%
- viability at 1 µM (501Mel cells (parental); Homo sapiens, read-out: cell viability, 501Mel Parental, 1μΜ): 95%
- viability at 10 µM (501Mel cells (parental); Homo sapiens, read-out: cell viability, 501Mel Parental, 10μΜ): 88.9%
- viability at 1 µM ([3]; Homo sapiens, IGR-37, 72 h, read-out: cell viability, IGR37 XP, 1μΜ): 96.5%
- viability at 10 µM ([3]; Homo sapiens, IGR-37, 72 h, read-out: cell viability, IGR37 XP, 10μΜ): 75.3%
- viability at 1 µM ([4]; Homo sapiens, A-375, 72 h, read-out: cell viability, A375 XP, 1μΜ): 105%
- viability at 10 µM ([4]; Homo sapiens, A-375, 72 h, read-out: cell viability, A375 XP, 10μΜ): 102%
- viability at 1 µM (A375 cells (parental); Homo sapiens, A-375, 72 h, read-out: cell viability, A375 Parental, 1μΜ): 103%
- viability at 10 µM (A375 cells (parental); Homo sapiens, A-375, 72 h, read-out: cell viability, A375 Parental, 10μΜ): 94.8%
- viability at 1 µM ([5]; Homo sapiens, read-out: cell viability, 501Mel XP, 1μΜ): 98.5%
- viability at 10 µM ([5]; Homo sapiens, read-out: cell viability, 501Mel XP, 10μΜ): 74.5%
- viability at 1 µM ([6]; Homo sapiens, IGR-37, 72 h, read-out: cell viability, IGR37 GP, 1μΜ): 92%
- viability at 10 µM ([6]; Homo sapiens, IGR-37, 72 h, read-out: cell viability, IGR37 GP, 10μΜ): 91.5%
- viability at 1 µM (IGR37 cells (parental); Homo sapiens, IGR-37, 72 h, read-out: cell viability, IGR37 Parental, 1μΜ): 99.6%
- viability at 10 µM (IGR37 cells (parental); Homo sapiens, IGR-37, 72 h, read-out: cell viability, IGR37 Parental, 10μΜ): 98.8%

— paper PMC6364417, “Kinase inhibitor library screening identifies synergistic drug combinations effective in sensitive and resistant melanoma cells” (Journal of Experimental & Clinical Cancer Research : CR, 2019)
